Experimental data from patent publication US10064831B2, “Active substances and cosmetic or dermatological preparations containing said active substances for the care of the skin of patients of diabetes mellitus” (BEIERSDORF AG, priority 2015, dated 2018).

Tested on: glyoxalases
Experiment: induction of glyoxalase activity in skin cells
Assay type: cell-based
Settings: no method or numbers given

## C=CC(C)(C)c1cc(/C=C/C(=O)c2ccc(O)cc2)c(OC)cc1O [licochalcone A]
  activity of glyoxalases induced in skin cells: enhanced activity of glyoxalases
